In brackets after ≈: the same amount, converted by molar mass. Read-outs that look alike come from different tables or passages of the source.

The text below walks through data of patent US20050267051A1, “Antineoplastic and anti-HIV conjugates of steroid acid and nucleosides” (priority 2003, published 2005).

Data set [1] relates to H9 cells. In words: Growth inhibition (anti-growth) assay on H9 cells, trypan blue exclusion count. It counts as cell-based, human. Conditions: for IC50: Homo sapiens, H9. The text has this: Anti-growth activity on H-9 cells is summarized by IC50 data (drug concentration measured by […]g/ml needed to inhibit 50% of the cell growth), derived from dose-response curves.
(§1) Cell growth inhibitory activity against human lymphoblasts (H9 cells) for compounds (4), (5) and (6) is depicted in FIG. 1. […] Conjugate (4) was further tested against ddC resistant H9 cells (H9/ddC cells that have reduced thymidine and deoxycytidine kinase activities); HL60, HL60/araC (human promyclocytic leukemic cell lines, parental and araC resistant), H29, H29/FU (human colon adenocarcinomas, parental and FU resistant), MCF7 (human breast carcinoma) and BL5 (Burkitt lymphoma cell line). At 10 μg/ml, it produced 85-100% growth inhibition in all of these human tumor cell lines.
(§2) Growth inhibition assays were performed in triplicate by seeding 5×10^4 Cells/ml in 24-well plates (Costar). Test compounds were added, and the trypan blue-excluding cells were counted after 72 hrs of incubation at 37° C. IC50 values were calculated from growth inhibition curves as described in Agarwal, R. P., and Mian, A. Biochem. Pharmacol. 1991, 42, 905 and Agarwal, Ram P., Han, Tieran, Fernandez, Manilyn. Biochemical and Biophysical Research com in un ica lions. 1999, 262, 657.

For the next data set, the system named is HIV-1. In words: Anti-HIV assay with T4 lymphocytes (CEM-SS cell line), XTT, protection against HIV cytopathic effects. Conditions: for Anti-HIV activity (in words): in vitro anti-HIV bioassays; for EC50: read-out: EC50 (50% effective concentration against HIV cytopathic effects). It counts as cell-based. An excerpt:
(§3) The ester conjugates were subjected to standard in vitro anti-HIV bioassays [see: with T4 lymphocytes (CEM-SS cell line) according to the standard assays described, for example in Bourinbaiar AS, Lee-Huang S. Contraception 1995; 51:319-22 and http://www.iaen.org/files.cgi/7014_Bourinbaiar.pdf. Drug efficacy (EC50) was obtained by adding HIV and AZT conjugate to the cell to measure protection of the drug against HIV-induced celldeath. The cytotoxicity (IC50) data was obtained from adding only the conjugate to the cell to measure cell death caused by the agent. The therapeutic index (TI) is the ratio IC50/EC50. […] These two active agents appear to have less cytotoxicity and weaker anti-HIV potency than AZT. […] This intriguing profile of conjugate (4) prompted further evaluations of its growth inhibition in comparison to (5) and (6).
(§4) The anti-HIV assay was carried out with T4 lymphocytes (CEM-SS cell line) through the following standard procedure. Agent is dissolved in dimethyl sulfoxide and diluted 1:100 in cell culture medium before preparing serial half-log 10 dilutions. T4 lymphocytes are added and after a brief interval HIV-1 is added, resulting in a 1:200 final dilution of the compound. Uninfected cells with the compound serve as a toxicity control, and infected and uninfected cells without the compound serve basic controls. Cultures are incubated at 37° C. in a 5% carbon dioxide atmosphere for 6 days. The tetrazolium salt, XTT, is added to all wells, and the cultures are incubated to allow formazan color development. Individual wells are analyzed spectrophotometrically to quantitate formazan production, and in addition are viewed microscopically for detection of viable cells and confirmation of protective activity.
(§5) Drug-treated virus-infected cells are compared with drug-treated non-infected cells and with other appropriate controls (untreated infected and untreated non-infected cells, drug-containing wells without cells, etc.) on the same plate. Data are reviewed in comparison with other tests done at the same time and a determination concerning activity is made (Table 1).
(In general: Formazan colour is commonly taken as a measure of viable cells.)

For data set [2], the system named is T4 lymphocytes (CEM-SS cell line). In words: Cytotoxicity in uninfected CEM-SS cells (toxicity control of anti-HIV assay). The class given is cell-based.
Text: as §3, §4, §5

For a further data set, the system named is H9/ddC cells. Kind of data set: Growth inhibition assay, ddC resistant H9 cells. It counts as cell-based, human. As to conditions: 10 μg/ml.
Text: as §1, §2

Another data set relates to HL60. In words: Growth inhibition assay, HL60. It counts as cell-based, human. As to conditions: 10 μg/ml; HL60 promyelocytic leukemic, parental.
Text: as §1, §2

The next data set has as its system HL60/araC. Kind of data set: Growth inhibition assay, HL60/araC. It counts as cell-based, human. As to conditions: 10 μg/ml, araC resistant.
Text: as §1, §2

A further data set deals with H29/FU. In words: Growth inhibition assay, H29/FU. It counts as cell-based, human. As to conditions: 10 μg/ml, FU resistant.
Text: as §1, §2

Another data set deals with MCF7. Kind of data set: Growth inhibition assay, MCF7. Conditions: 10 μg/ml; MCF7 breast carcinoma. It counts as cell-based, human.
Text: as §1, §2

The test system of data set [3] is H9 cells. In words: Apoptosis assay, Annexin V-FITC and propidium iodide staining, flow cytometry. It counts as cell-based, human. Conditions: 10 μg/ml, 48 hrs; FIG. 4. The procedure: In the experiments, fractions of cells in various stages of apoptotic death were assessed according to standard assays [see, e.g., http://www.blackwell-synergy.com/links/doi/10.1046/j.1365-2184.2003.00283.x/abs/; http://64.177.90.157/pfpc/Fluoride_Machalinski—2003.pdf and http://jpet.aspetjournals.org/cgi/content/full/310/1/126 by simultaneous Annexin V and propidium iodide staining using flow cytometry.
Apoptosis experiments were carried out by treating H9 Cells […] with compound 4 (10 μg/ml), AZT (10 μg/ml) or cholenic acid (10 μg/ml) for 48 hrs. Cells were collected by centrifugation, washed with growth medium, and stained with Annexin V-FITC and propidium iodide (apoptosis dilution kit; Sigma), according to the manufacturer's protocol, and the fluorescence was analyzed via flow cytometry.
A general note: In flow cytometry, cells or beads pass a laser one at a time.

A short description of data set [4]: Cytotoxicity in uninfected CEM-SS cells (toxicity control of anti-HIV assay). The class given is cell-based. As to conditions: human, uninfected CEM-SS cells (T4 lymphocytes); CEM-SS cell line, uninfected; average of two repeat experiments; read-out: IC50 (50% inhibitory concentration for cell growth), cytotoxicity.
Text: as §3, §4, §5

Where [5] appears, read: H-9 cells, derived from dose-response curves, read-out: IC50 (drug concentration needed to inhibit 50% of the cell growth), anti-growth activity on H-9 cells.
[6] abbreviates: FIG. 1, 72 hrs incubation, read-out: IC50, cell growth inhibitory activity against human lymphoblasts (H9 cells).

“3′-Azido-3′-deoxythymidine-5′-[3β-acetyloxy-22,23-bisnor-5-cholenate] [compound 4]”: the “cytotoxicity after 24 hrs drug exposure” value in the data set on H9 cells [1] (5 μg/ml, 24 hrs exposure, FIG. 3) is “Substantially more cytotoxicity”. The “cytotoxicity after 72 hrs drug exposure” value in the data set with H9 cells [1] (5 μg/ml, 72 hrs exposure, FIG. 3) was “only gave a plateau”. Further, in the data set on H9 cells [1] (1 or 5 μg/ml, 4 hrs exposure, FIG. 3), the “cell growth inhibition after 4 hrs drug exposure” value is on record as “did not produce any inhibition”. Besides, the “cell growth inhibition after 8 hrs drug exposure” value in the data set with H9 cells [1] (1 or 5 μg/ml, 8 hrs incubation, FIG. 3) is reported as 20-25%. Moreover, in the data set with H9 cells [1] (FIG. 1, 72 hrs incubation), the “IC50, cell growth inhibitory activity against human lymphoblasts (H9 cells)” value is roughly 2.5 µg/mL. The “Inhibition of growth of H9 cells (in words)” value with H9 cells [1] (FIG. 2, 5 μg/ml for (4)) is “prevented growth of H9 cells almost completely”. In the data set with HIV-1 (CEM-SS cell line, average of two repeat experiments), the “EC50 (50% effective concentration against HIV cytopathic effects)” value is “inactive”. Moreover, the “Anti-HIV activity (in words)” value with HIV-1 is on record as “no anti-HIV activity”. In addition, in [2] (CEM-SS cell line, uninfected, average of two repeat experiments, read-out: IC50 (50% inhibitory concentration for cell growth), cytotoxicity), the IC50 was 4.7 µM. In addition, in data set [2] (CEM-SS cells, conjugate only), the “Cytotoxicity (in words)” value was “high cytotoxicity”. Also, the growth inhibition with H9/ddC cells, in the data set on HL60, in the data set on HL60/araC, with H29/FU and in the data set with MCF7 was 85-100% in each case. For the same compound, the “cells induced to apoptosis” value in the data set on H9 cells [3] is recorded as roughly 90%.

Consider `Cc1cn(C2C[C@H](N=[N+]=[N-])C(COC(=O)CCC(C)C3CCC4C5CCC6CCCCC6(C)C5CCC34C)O2)c(=O)[nH]c1=O` (stereo partly shown) [A, 5-Cholanic acid, 5′-(3′-azido-3′-deoxythymidinyl) ester], for which, in the data set with H9 cells [1] (setting [5]), the IC50 stood at 30 µg/mL (≈ 49.2 µM).

With `Cc1cn(C2C[C@H](N=[N+]=[N-])C(COC(=O)CCC(C)C3CCC4C5C(=O)CC6CC(=O)CCC6(C)C5CC(=O)C34C)O2)c(=O)[nH]c1=O` (stereo partly drawn) [B, 5β-Cholanic acid-3,7,12-trione, 5′-(3′-azido-3′-deoxythymidinyl) ester], in the data set with H9 cells [1] (setting [5]), the IC50 is 30 µg/mL (≈ 46 µM).

With `CC(=O)O[C@@H]1CCC2(C)C(CCC3C2CCC2(C)C(C(C)CCC(=O)OCC4OC(n5cc(C)c(=O)[nH]c5=O)C[C@@H]4N=[N+]=[N-])CCC32)C1` (stereo partly drawn) [C, 3α-Acetyloxy-5[…]-Cholanic acid, 5′-(3′-azido-3′-deoxythymidinyl) ester], in the data set on H9 cells [1] (setting [5]), the IC50 came out at 4 µg/mL (≈ 5.99 µM).

Turning to `CC(=O)O[C@H]1CCC2(C)C(=CCC3C2CCC2(C)C(C(C)C(=O)OCC4C=CC(n5cc(C)c(=O)[nH]c5=O)O4)CCC32)C1` (stereo partly drawn) [D, 3β-Acetyloxy-23,24-bisnor-5-cholenic acid, 5′-(3′-deoxy-2′,3′-didehydrothymidinyl) ester], the IC50 with H9 cells [1] (setting [5]) worked out at 4 µg/mL (≈ 6.73 µM).

In the case of `CC(=O)O[C@H]1CCC2(C)C(=CCC3C2CCC2(C)C(C(C)C(=O)OCC4CCC(n5cc(C)c(=O)[nH]c5=O)O4)CCC32)C1` (stereo partly drawn) [E, 3β-Acetyloxy-23,24-bisnor-5-cholenic acid, 5′-(3′-deoxythymidinyl) ester], in the data set with H9 cells [1] (setting [5]), the IC50 worked out at 3 µg/mL (≈ 5.03 µM).

As to `COC(OC)C(=O)[C@H]1[C@H](C(=O)OC[C@H]2O[C@@H](n3cc(C)c(=O)[nH]c3=O)C[C@@H]2N=[N+]=[N-])C[C@H]2[C@@H]3CCC4=CC(=O)C=C[C@]4(C)[C@H]3[C@@H](O)C[C@@]21C` [compound 5, 3′-Azido-3′-deoxythymidine-5′-[21,21-dimethoxy-3,20-dioxo-11β-hydroxy-1,4-pregnadiene-16α-carboxylate]], in the data set with H9 cells [1] (setting [6]), the IC50 was roughly 12 µg/mL (≈ 17.6 µM). For the same compound, the EC50 in the data set on HIV-1 (Human immunodeficiency virus 1, CEM-SS) was 0.035 µM. Moreover, the “Anti-HIV activity (in words)” value in the data set on HIV-1 is on record as “active”.

Regarding `Cc1cn(C2C[C@H](N=[N+]=[N-])C(COC(=O)[C@@H]3OC(C)(C)O[C@@]34CCC3C5CCC6=CC(=O)C=CC6(C)C5C(O)CC34C)O2)c(=O)[nH]c1=O` (stereo partly drawn) [compound 6, 3′-Azido-3′-deoxythymidine-5′-[11β-hydroxy-17,20α-isopropylidenedioxy-3-oxo-1,4-pregnadiene-21-oate]], the IC50 in the data set with H9 cells [1] (setting [6]) is roughly 10 µg/mL (≈ 15 µM). For the same compound, the EC50 in the data set on HIV-1 (Human immunodeficiency virus 1, CEM-SS cell line, average of two repeat experiments) was determined as 0.065 µM. The “Anti-HIV activity (in words)” value in the data set with HIV-1 is reported as “active”. Further, in data set [4], the IC50 at 6 days was found to be 12 µM.
